In US20160368870A1, “OLEFIN SUBSTITUTED OXINDOLES HAVING AMPK ACTIVITY” (BOEHRINGER INGELHEIM INTERNATIONAL GMBH, priority 2013, published 2016):

Molecular target: T1, AMPK beta 1 (Homo sapiens, UniProt Q13131+Q9Y478)
T1 construct: in-cell-ELISA for phospho-ACC (Acetyl-CoA carboxylase 1) in HepG2 cells (liver); endogenous in cells; host or cells: HepG2
Assay: in-cell-ELISA for phospho-ACC, Activity beta 1
Type: cell-based
Conditions: 2 h, serum free DMEM, percentage activation over vehicle control, cell line not given (HepG2 or C2C12 myotubes)
Procedure: (§1) Activation of AMPK by various compounds were measured using in-cell-ELISA for phospho-ACC (Acetyl-CoA carboxylase 1) in HepG2 cells (liver) and fully differentiated myotubes (C2C12 cells) grown in 96 well plate. Cells were treated with 1 μM of the molecule for 2 h in serum free DMEM media. After methanol fixation, cells were blocked with BSA followed by addition of anti-phospho ACC antibody (Cell Signaling) and HRP conjugated secondary antibody. Absorbance values taken at 450 nm and were normalized with total DNA (Hoechest stain). Results were expressed as percentage activation over vehicle control.

T1 sequence (Q9Y478 whole entry): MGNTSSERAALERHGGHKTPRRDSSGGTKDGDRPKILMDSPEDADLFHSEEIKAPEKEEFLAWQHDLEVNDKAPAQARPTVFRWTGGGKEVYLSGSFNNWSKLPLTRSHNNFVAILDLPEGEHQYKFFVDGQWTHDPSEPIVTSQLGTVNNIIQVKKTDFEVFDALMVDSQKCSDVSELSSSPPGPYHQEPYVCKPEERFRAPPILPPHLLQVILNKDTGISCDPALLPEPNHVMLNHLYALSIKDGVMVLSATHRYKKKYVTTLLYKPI
T1 sequence (Q13131 whole entry): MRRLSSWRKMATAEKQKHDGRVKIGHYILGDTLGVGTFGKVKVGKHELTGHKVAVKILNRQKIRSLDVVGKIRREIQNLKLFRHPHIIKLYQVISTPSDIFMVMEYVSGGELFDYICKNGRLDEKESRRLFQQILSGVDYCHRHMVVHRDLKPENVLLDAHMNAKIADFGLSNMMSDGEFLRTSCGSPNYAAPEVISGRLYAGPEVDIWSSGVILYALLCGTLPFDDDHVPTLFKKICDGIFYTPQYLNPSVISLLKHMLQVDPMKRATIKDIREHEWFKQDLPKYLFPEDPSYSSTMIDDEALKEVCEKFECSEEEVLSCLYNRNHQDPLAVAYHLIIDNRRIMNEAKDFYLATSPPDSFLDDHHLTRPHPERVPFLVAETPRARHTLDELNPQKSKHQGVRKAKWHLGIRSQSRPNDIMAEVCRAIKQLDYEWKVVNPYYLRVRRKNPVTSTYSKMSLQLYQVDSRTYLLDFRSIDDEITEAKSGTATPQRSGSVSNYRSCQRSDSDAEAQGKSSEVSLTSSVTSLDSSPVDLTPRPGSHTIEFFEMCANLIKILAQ
T1 sequence (P54619 whole entry partner): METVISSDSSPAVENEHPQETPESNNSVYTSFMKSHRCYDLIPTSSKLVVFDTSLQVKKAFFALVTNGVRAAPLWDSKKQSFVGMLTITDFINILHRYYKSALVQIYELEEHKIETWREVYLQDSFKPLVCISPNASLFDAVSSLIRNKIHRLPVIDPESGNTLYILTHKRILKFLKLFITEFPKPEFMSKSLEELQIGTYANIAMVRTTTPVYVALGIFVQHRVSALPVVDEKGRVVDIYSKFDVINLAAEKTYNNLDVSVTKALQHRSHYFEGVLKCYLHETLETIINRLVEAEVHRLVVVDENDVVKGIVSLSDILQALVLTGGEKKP

`O=C(O)Cc1cccc(C=C2C(=O)Nc3cc(Cl)c(-c4ccc(-c5ccccc5O)nc4)cc32)c1` [Example 35] and `Cc1ccc(C=C2C(=O)Nc3cc(Cl)c(-c4ccc(-c5ccccc5O)nc4)cc32)cc1CC(=O)O` [Example 33] cannot be ordered by activation at 1 µM: under 20% for the first, under 20% for the second.

Going from `COc1ccc(C=C2C(=O)Nc3cc(Cl)c(-c4ccc(-c5ccc(-n6ccnc6C)cc5)cc4)cc32)cc1CC(=O)O` [Example 66] to `COc1ccc(C=C2C(=O)Nc3cc(Cl)c(-c4ccc(-c5ccc(-n6ccnn6)cc5)cc4)cc32)cc1CC(=O)O` [Example 56], the activation at 1 µM rises from under 20% to over 40%.

First: Cc1ccc(C=C2C(=O)Nc3cc(Cl)c(-c4ccc(-c5ccc(S(C)(=O)=O)cc5)cc4)cc32)cc1CC(=O)O [Example 48]
Second: Cc1ccc(C=C2C(=O)Nc3cc(Cl)c(-c4ccc(-c5ccncc5)cc4)cc32)cc1CC(=O)O [Example 39]
The activation at 1 µM of the first is higher: over 40% for the first, 20 to 40% for the second.

First: Cc1ccc(C=C2C(=O)Nc3cc(F)c(-c4ccc(-c5ccccc5O)cc4)cc32)cc1C(=O)O [Example 2]
Second: Cc1ccc(C=C2C(=O)Nc3cc(Cl)c(-c4ccc(-c5ccccc5O)cc4)cc32)cc1C(=O)O [Example 9]
The activation at 1 µM of the first is lower: 20 to 40% for the first, over 40% for the second.

Compared with `Cc1ccc(C=C2C(=O)Nc3cc(Cl)c(-c4ccc(-c5ccccc5O)cc4)cc32)cc1CC(=O)O` (racemic) [Example 1, (5-{(E/Z)-[6-Chloro-5-(2′-hydroxybiphenyl-4-yl)-2-oxo-1,2-dihydro-3H-indol-3-ylidene]methyl}-2-methylphenyl)acetic acid], `O=C(O)Cc1cc(C=C2C(=O)Nc3cc(Cl)c(-c4ccc(-c5ccccc5O)cc4)cc32)ccc1O` (racemic) [Example 12, (5-{(E/Z)-[6-Chloro-5-(2′-hydroxybiphenyl-4-yl)-2-oxo-1,2-dihydro-3H-indol-3-ylidene]methyl}-2-hydroxyphenyl)acetic acid] is lower in activation at 1 µM: over 40% for the first, under 20% for the second.

`CN1C(=O)C(=Cc2cc(C(=O)O)n(C)c2)c2cc(-c3ccc(-c4ccccc4O)cc3)c(Cl)cc21` [Example 29] and `Cn1cc(C=C2C(=O)N(CCO)c3cc(Cl)c(-c4ccc(-c5ccccc5O)cc4)cc32)cc1C(=O)O` [Example 26] cannot be ordered by activation at 1 µM: under 20% for the first, under 20% for the second.

`COc1ccc(C=C2C(=O)Nc3cc(Cl)c(-c4ccc(-c5ccccc5O)cc4)cc32)cc1CC(=O)O` [Example 11] and `COc1ccc(C=C2C(=O)Nc3cc(F)c(-c4ccc(-c5ccccc5O)cc4)cc32)cc1CC(=O)O` [Example 7] cannot be ordered by activation at 1 µM: over 40% for the first, over 40% for the second.

`Cc1ccc(C=C2C(=O)Nc3cc(F)c(-c4ccc(-c5ccc(-n6ccnn6)cc5)cc4)cc32)cc1C(=O)O` [Example 64] and `Cc1ccc(C=C2C(=O)Nc3cc(F)c(-c4ccc(-c5ccc(-n6cccn6)cc5)cc4)cc32)cc1C(=O)O` [Example 61] cannot be ordered by activation at 1 µM: over 40% for the first, over 40% for the second.

`Cc1ccc(C=C2C(=O)Nc3cc(Cl)c(-c4ccc(-c5ccccc5O)cn4)cc32)cc1C(=O)O` [Example 32] and `Cc1ccc(C=C2C(=O)Nc3cc(Cl)c(-c4ccc(-c5ccccc5O)cn4)cc32)cc1CC(=O)O` [Example 31] cannot be ordered by activation at 1 µM: under 20% for the first, under 20% for the second.

`C/C(=C1/C(=O)Nc2cc(F)c(-c3ccc(-c4ccccc4O)cc3)cc21)c1cccc(CC(=O)N2CCCC2)c1` [Example 24, (3Z)-6-Fluoro-5-(2′-hydroxybiphenyl-4-yl)-3-(1-{3-[2-oxo-2-(pyrrolidin-1-yl)ethyl]phenyl}ethylidene)-1,3-dihydro-2H-indol-2-one] and `CC(=C1C(=O)Nc2cc(F)c(-c3ccc(-c4ccccc4O)cc3)cc21)c1cccc(CC(=O)O)c1` [Example 8] cannot be ordered by activation at 1 µM: under 20% for the first, under 20% for the second.

Compared with `Cn1nc(/C=C2\C(=O)Nc3cc(Cl)c(-c4ccc(-c5ccccc5O)cc4)cc32)cc1C(=O)O` [Example 20, 3-{(Z)-[6-chloro-5-(2′-hydroxybiphenyl-4-yl)-2-oxo-1,2-dihydro-3H-indol-3-ylidene]methyl}-1-methyl-1H-pyrazole-5-carboxylic acid], `Cn1c(C=C2C(=O)Nc3cc(Cl)c(-c4ccc(-c5ccccc5O)cc4)cc32)ccc1C(=O)O` [Example 14] is higher in activation at 1 µM: under 20% for the first, 20 to 40% for the second.

`COc1ccc(C=C2C(=O)Nc3cc(Cl)c(-c4ccc(-c5ccc(-n6cccn6)cc5)cc4)cc32)cc1CC(=O)O` [Example 49] and `COc1ccc(C=C2C(=O)Nc3cc(Cl)c(-c4ccc(-c5ccc(-n6cncn6)cc5)cc4)cc32)cc1CC(=O)O` [Example 51] cannot be ordered by activation at 1 µM: over 40% for the first, over 40% for the second.

First: COc1ccc(C=C2C(=O)Nc3cc(Cl)c(-c4ccc(-c5ccccc5O)cc4)nc32)cc1C(=O)O [Example 38]
Second: COc1ccc(C=C2C(=O)Nc3cc(Cl)c(-c4ccc(-c5ccccc5O)cc4)nc32)cc1CC(=O)O [Example 37]
The activation at 1 µM of the first is lower: 20 to 40% for the first, over 40% for the second.

`COc1ccc(C=C2C(=O)Nc3cc(Cl)c(-c4ccc(-c5ccc(-n6cncn6)cc5)c(F)c4)cc32)cc1CC(=O)O` [Example 60] and `COc1ccc(C=C2C(=O)Nc3cc(F)c(-c4ccc(-c5ccc(-n6cncn6)cc5)cc4)cc32)cc1CC(=O)O` [Example 59] cannot be ordered by activation at 1 µM: over 40% for the first, over 40% for the second.

Going from `O=C(O)Cc1ccc(C=C2C(=O)Nc3cc(F)c(-c4ccc(-c5ccccc5O)cc4)cc32)cc1` [Example 4] to `O=C(O)Cc1cccc(C=C2C(=O)Nc3cc(F)c(-c4ccc(-c5ccccc5O)cc4)cc32)c1` [Example 5], the activation at 1 µM rises from under 20% to over 40%.

`O=C(O)COc1cccc(C=C2C(=O)Nc3cc(Cl)c(-c4ccc(-c5ccccc5O)cc4)cc32)c1` [Example 10] and `O=C1Nc2cc(Cl)c(-c3ccc(-c4ccccc4O)cc3)cc2C1=Cc1c[nH]c(C(=O)O)c1` [Example 16] cannot be ordered by activation at 1 µM: under 20% for the first, under 20% for the second.

`O=C1Nc2cc(Cl)c(-c3ccc(-c4ccccc4O)cc3)cc2C1=Cc1csc(C(=O)O)n1` [Example 22] and `O=C1Nc2cc(Cl)c(-c3ccc(-c4ccccc4O)cc3)cc2C1=Cc1ccc(C(=O)O)[nH]1` [Example 15] cannot be ordered by activation at 1 µM: under 20% for the first, under 20% for the second.

Compared with `Cc1ccc(C=C2C(=O)Nc3cc(Cl)c(-c4ccc(-c5ccccc5O)cc4)cc32)cc1` [Example 18], `Cn1ccc(C=C2C(=O)Nc3cc(Cl)c(-c4ccc(-c5ccccc5O)cc4)cc32)c1` [Example 19] is higher in activation at 1 µM: under 20% for the first, over 40% for the second.

`Cn1cc(C=C2C(=O)Nc3cc(Cl)c(-c4ccc(-c5ccc(-n6cncn6)cc5)cc4)cc32)cc1C(=O)O` [Example 63] and `Cn1c(C=C2C(=O)Nc3cc(Cl)c(-c4ccc(-c5ccc(-n6cncn6)cc5)cc4)cc32)ccc1C(=O)O` [Example 69] cannot be ordered by activation at 1 µM: over 40% for the first, over 40% for the second.

Compared with `O=C(O)Cc1cccc(C=C2C(=O)Nc3cc(Cl)c(-c4ccc(-c5ccc(-n6cncn6)cc5)cc4)cc32)c1` [Example 52], `Cc1ccc(C=C2C(=O)Nc3cc(Cl)c(-c4ccc(-c5ccc(-n6cncn6)cc5)cc4)cc32)cc1CC(=O)O` [Example 50] is lower in activation at 1 µM: over 40% for the first, 20 to 40% for the second.

`Cc1ccc(C=C2C(=O)Nc3cc(Cl)c(-c4ncc(-c5ccccc5O)cn4)cc32)cc1CC(=O)O` [Example 45] and `COc1ccc(C=C2C(=O)Nc3cc(Cl)c(-c4ncc(-c5ccccc5O)cn4)cc32)cc1CC(=O)O` [Example 46] cannot be ordered by activation at 1 µM: under 20% for the first, under 20% for the second.

`Cn1cc(C=C2C(=O)Nc3cc(Cl)c(-c4ccc(-c5ccccc5)cc4)cc32)cc1C(=O)O` [Example 23] and `Cn1cc(C=C2C(=O)Nc3cc(F)c(-c4ccc(-c5ccncc5)cc4)cc32)cc1C(=O)O` [Example 43] cannot be ordered by activation at 1 µM: under 20% for the first, under 20% for the second.

`Cn1ccc(C=C2C(=O)N(CC(=O)O)c3cc(Cl)c(-c4ccc(-c5ccccc5O)cc4)cc32)c1` (racemic) [Example 25, {(3E/32)-6-Chloro-5-(2′-hydroxybiphenyl-4-yl)-3-[(1-methyl-1H-pyrrol-3-yl)methylidene]-2-oxo-2,3-dihydro-1H-indol-1-yl}acetic acid] and `Cn1cc(CC(=O)O)cc1C=C1C(=O)Nc2cc(Cl)c(-c3ccc(-c4ccccc4O)cc3)cc21` [Example 17] cannot be ordered by activation at 1 µM: under 20% for the first, under 20% for the second.

Compared with `Cc1ccc(C=C2C(=O)Nc3cc(F)c(-c4ccc(-c5ccccc5O)cc4)cc32)cc1CC(=O)O` [Example 3], `Cc1ccc(C=C2C(=O)Nc3cc(F)c(-c4cccc(-c5ccccc5O)c4)cc32)cc1CC(=O)O` (single isomer, unassigned) [Example 30, (5-{(E/Z)-[6-Fluoro-5-(2′-hydroxybiphenyl-3-yl)-2-oxo-1,2-dihydro-3H-indol-3-ylidene]methyl}-2-methylphenyl)acetic acid] is lower in activation at 1 µM: over 40% for the first, under 20% for the second.

Compared with `Cc1ccc(C=C2C(=O)Nc3cc(Cl)c(-c4ccc(-c5ccccc5O)cc4)nc32)cc1CC(=O)O` [Example 36], `COc1ccc(C=C2C(=O)Nc3cc(Cl)c(-c4ccc(-c5ccccc5O)cn4)cc32)cc1CC(=O)O` [Example 34] is lower in activation at 1 µM: 20 to 40% for the first, under 20% for the second.

Going from `Cc1ccc(C=C2C(=O)Nc3cc(F)c(-c4ccc(-c5ccncc5)cc4)cc32)cc1CC(=O)O` [Example 44] to `Cc1ccc(C=C2C(=O)Nc3cc(F)c(-c4ccc(-c5ccc(-n6cncn6)cc5)cc4)cc32)cc1C(=O)O` [Example 65], the activation at 1 µM rises from under 20% to over 40%.

With `Cn1nc(C=C2C(=O)Nc3cc(Cl)c(-c4ccc(-c5ccccc5O)cc4)cc32)cc1C(=O)[O-].[Na+]` (mixture of isomers) [Example 21, Sodium 3-{(E/Z)-[6-chloro-5-(2′-hydroxybiphenyl-4-yl)-2-oxo-1,2-dihydro-3H-indol-3-ylidene]methyl}-1-methyl-1H-pyrazole-5-carboxylate] the “Activity beta 1 (at 1 uM)” value was “* (* <20)”.

Molecular target: T2, AMPK beta 2 (Mus musculus, UniProt Q6PAM0+Q8BRK8)
T2 construct: fully differentiated myotubes (C2C12 cells) grown in 96 well plate; endogenous in cells; host or cells: C2C12 myotubes
T2 sequence (Q6PAM0 whole entry): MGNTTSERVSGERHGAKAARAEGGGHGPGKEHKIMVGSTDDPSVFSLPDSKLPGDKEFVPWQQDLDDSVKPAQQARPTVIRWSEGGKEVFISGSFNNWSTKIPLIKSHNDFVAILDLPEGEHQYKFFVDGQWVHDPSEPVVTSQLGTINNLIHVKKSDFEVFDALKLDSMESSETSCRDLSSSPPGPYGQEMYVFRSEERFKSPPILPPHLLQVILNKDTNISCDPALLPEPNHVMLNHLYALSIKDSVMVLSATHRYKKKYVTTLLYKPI
T2 sequence (Q8BRK8 whole entry): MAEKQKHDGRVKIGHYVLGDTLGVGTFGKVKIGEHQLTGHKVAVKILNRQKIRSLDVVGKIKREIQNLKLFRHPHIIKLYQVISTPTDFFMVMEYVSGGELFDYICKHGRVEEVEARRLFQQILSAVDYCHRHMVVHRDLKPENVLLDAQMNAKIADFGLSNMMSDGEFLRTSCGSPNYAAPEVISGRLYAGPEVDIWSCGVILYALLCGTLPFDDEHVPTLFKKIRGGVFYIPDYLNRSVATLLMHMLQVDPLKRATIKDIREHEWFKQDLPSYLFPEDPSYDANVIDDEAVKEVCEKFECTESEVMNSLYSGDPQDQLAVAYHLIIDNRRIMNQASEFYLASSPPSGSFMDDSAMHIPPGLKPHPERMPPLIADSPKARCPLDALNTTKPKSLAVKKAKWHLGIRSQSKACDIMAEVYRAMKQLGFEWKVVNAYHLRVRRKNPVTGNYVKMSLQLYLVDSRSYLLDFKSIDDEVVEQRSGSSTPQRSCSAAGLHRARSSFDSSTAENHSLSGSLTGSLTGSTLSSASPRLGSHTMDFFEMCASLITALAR
T2 sequence (O54950 whole entry partner): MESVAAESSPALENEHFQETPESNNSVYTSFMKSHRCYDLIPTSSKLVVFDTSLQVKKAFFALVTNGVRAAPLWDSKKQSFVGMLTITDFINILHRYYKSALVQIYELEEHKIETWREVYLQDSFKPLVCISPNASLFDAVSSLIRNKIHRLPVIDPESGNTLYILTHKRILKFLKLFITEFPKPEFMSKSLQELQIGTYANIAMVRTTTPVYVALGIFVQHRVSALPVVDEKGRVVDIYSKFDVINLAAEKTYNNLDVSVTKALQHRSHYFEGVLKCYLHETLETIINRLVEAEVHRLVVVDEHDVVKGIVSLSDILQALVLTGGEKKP
Assay: in-cell-ELISA for phospho-ACC, Activity beta 2
Type: cell-based
Conditions: 2 h, serum free DMEM, percentage activation over vehicle control, cell line not given (HepG2 or C2C12 myotubes)
Procedure: as §1

`Cc1ccc(C=C2C(=O)Nc3cc(Cl)c(-c4ccc(-c5ccc(S(C)(=O)=O)cc5)cc4)cc32)cc1CC(=O)O` [Example 48] was tested, and the “Activity beta 2 (at 1 uM)” value was “*** (*** >40)”.
In the case of `COc1ccc(C=C2C(=O)Nc3cc(Cl)c(-c4ccc(-c5ccc(-n6ccnn6)cc5)cc4)cc32)cc1CC(=O)O` [Example 56], the “Activity beta 2 (at 1 uM)” value is reported as “*** (*** >40)”.
For `COc1ccc(C=C2C(=O)Nc3cc(Cl)c(-c4ccc(-c5ccccc5O)cc4)cc32)cc1CC(=O)O` [Example 11], the “Activity beta 2 (at 1 uM)” value was “*** (*** >40)”.
In the case of `COc1ccc(C=C2C(=O)Nc3cc(Cl)c(-c4ccc(-c5ccc(-n6cncn6)cc5)cc4)cc32)cc1CC(=O)O` [Example 51], the “Activity beta 2 (at 1 uM)” value is reported as “*** (*** >40)”.
